Inconclusive results are not listed.
Tested on: MX-1 breast xenograft, nude mice, tumor weight T/C
Experiment: NCI In Vivo Anticancer Drug Screen. Data for tumor model Human Mammary Carcinoma MX-1 Xenograft (intrarenal inoculation) in NU/NU Swiss (nude) mice
Conditions: endpoint: mean tumor weight change, higher = larger tumour
Method: The antitumor activity of compounds was measured in mice bearing transplantable tumors. Survival or tumor size were measured and the results are expressed as the measurement made in the treated group (T) divided by the measurement made in the vehicle treated control group (C). The tumor model used in this assay is Human Mammary Carcinoma MX-1 Xenograft (intrarenal inoculation) in NU/NU Swiss (nude) mice

[1] = dose: 300.0 mg/kg/injection, schedule: Q04DX003 (sc), vehicle: saline with Tween-80
[2] = dose: 600.0 mg/kg/injection, schedule: Q04DX003 (sc), vehicle: saline with Tween-80
[3] = dose: 400.0 mg/kg/injection, schedule: Q04DX003 (sc), vehicle: Klucel (hydroxypropylcellulose) (HPC)
[4] = dose: 800.0 mg/kg/injection, schedule: Q04DX003 (sc), vehicle: Klucel (hydroxypropylcellulose) (HPC)
[5] = dose: 1200.0 mg/kg/injection, schedule: Q04DX003 (sc), vehicle: saline with Tween-80
[6] = dose: 2400.0 mg/kg/injection, schedule: Q04DX003 (sc), vehicle: saline with Tween-80
[7] = dose: 75.0 mg/kg/injection, schedule: Q04DX003 (sc), vehicle: Klucel (hydroxypropylcellulose) (HPC)
[8] = dose: 150.0 mg/kg/injection, schedule: Q04DX003 (sc), vehicle: Klucel (hydroxypropylcellulose) (HPC)
[9] = dose: 300.0 mg/kg/injection, schedule: Q04DX003 (sc), vehicle: Klucel (hydroxypropylcellulose) (HPC)
[10] = dose: 600.0 mg/kg/injection, schedule: Q04DX003 (sc), vehicle: Klucel (hydroxypropylcellulose) (HPC)
[11] = dose: 1200.0 mg/kg/injection, schedule: Q04DX003 (sc), vehicle: Klucel (hydroxypropylcellulose) (HPC)

For C=C1c2cccc(O)c2C(O)=C2C(=O)[C@]3(O)C(O)=C(C(N)=O)C(=O)[C@@H](N(C)C)[C@@H]3[C@@H](O)[C@H]12, the T/C (dose: 75.0 mg/kg/injection, schedule: Q04DX003 (ip), vehicle: Klucel (hydroxypropylcellulose) (HPC)) was 89 % of control, the T/C (dose: 150.0 mg/kg/injection, schedule: Q04DX003 (ip), vehicle: Klucel (hydroxypropylcellulose) (HPC)) was 74 % of control and the T/C (dose: 300.0 mg/kg/injection, schedule: Q04DX003 (ip), vehicle: Klucel (hydroxypropylcellulose) (HPC)) was 58 % of control.

In the case of COC(=O)C(Cl)(Cl)N=Nc1c(Cl)cc(Cl)c(C)c1Cl, the T/C [1] is reported as 78 % of control and the T/C [2] is reported as 74 % of control.

In the case of O=C(Nc1ccc(N=C=S)cc1Cl)c1cc(Cl)cc(Cl)c1O, the T/C (dose: 25.0 mg/kg/injection, schedule: Q04DX003 (sc), vehicle: Klucel (hydroxypropylcellulose) (HPC)) is reported as 105 % of control, the T/C (dose: 50.0 mg/kg/injection, schedule: Q04DX003 (sc), vehicle: Klucel (hydroxypropylcellulose) (HPC)) is reported as 79 % of control and the T/C (dose: 100.0 mg/kg/injection, schedule: Q04DX003 (sc), vehicle: Klucel (hydroxypropylcellulose) (HPC)) is reported as 117 % of control. For the same molecule, the T/C [3] was 50 % of control and the T/C [4] was 48 % of control.

For CCC(=O)Sc1ccccc1C(=O)Nc1ccc(Cl)cc1, the T/C [1] was 63 % of control, the T/C [2] was 75 % of control and the T/C [5] was 58 % of control. For the same molecule, the T/C [6] was 69 % of control.

In the case of O=CN(SSN(C=O)C1CCCCC1)C1CCCCC1, the T/C (dose: 50.0 mg/kg/injection, schedule: Q01DX010 (sc), vehicle: saline with Tween-80) is reported as 69 % of control, the T/C (dose: 100.0 mg/kg/injection, schedule: Q01DX010 (sc), vehicle: saline with Tween-80) is reported as 83 % of control and the T/C (dose: 200.0 mg/kg/injection, schedule: Q01DX010 (sc), vehicle: saline with Tween-80) is reported as 53 % of control. For the same molecule, the T/C (dose: 400.0 mg/kg/injection, schedule: Q01DX010 (sc), vehicle: saline with Tween-80) was 34 % of control.

With CC(=O)OC1COC(NC(=O)N(CCCl)N=O)C(OC(C)=O)C1OC(C)=O (stereo not drawn) the T/C (dose: 4.5 mg/kg/injection, schedule: Q04DX003 (sc), vehicle: saline with Tween-80) was 105 % of control, the T/C (dose: 9.0 mg/kg/injection, schedule: Q04DX003 (sc), vehicle: saline with Tween-80) was 77 % of control and the T/C (dose: 18.0 mg/kg/injection, schedule: Q04DX003 (sc), vehicle: saline with Tween-80) was 110 % of control. The T/C (dose: 36.0 mg/kg/injection, schedule: Q04DX003 (sc), vehicle: saline with Tween-80) was 82 % of control.

In the case of C[n+]1cccc(NC(=O)c2ccc(NC(=O)C34CCC(C(=O)Nc5ccc(C(=O)Nc6ccc[n+](C)c6)cc5)(CC3)CC4)cc2)c1, the T/C (dose: 12.5 mg/kg/injection, schedule: Q04DX003 (sc), vehicle: saline with Tween-80) is reported as 118 % of control, the T/C (dose: 25.0 mg/kg/injection, schedule: Q04DX003 (sc), vehicle: saline with Tween-80) is reported as 64 % of control and the T/C (dose: 50.0 mg/kg/injection, schedule: Q04DX003 (sc), vehicle: saline with Tween-80) is reported as 35 % of control. For the same molecule, the T/C (dose: 100.0 mg/kg/injection, schedule: Q04DX003 (sc), vehicle: saline with Tween-80) was 27 % of control.

With O=c1[nH]c(=O)n(C2OC(CO)C(O)C2O)cc1F (stereo not drawn) the T/C (dose: 9.38 mg/kg/injection, schedule: Q01DX010 (sc), vehicle: saline) was 21 % of control.

In the case of CC1(C)CC2(C)OC2C2(C1)N=NC(=Nc1ccccc1)O2 (stereo not drawn), the T/C [1] is reported as 79 % of control, the T/C [2] is reported as 81 % of control and the T/C [5] is reported as 88 % of control. For the same molecule, the T/C [6] was 81 % of control.

For CN(C)c1ccc2c(SCC(=O)OCC(=O)[C@@]3(O)CC[C@H]4[C@@H]5CCC6=CC(=O)C=C[C@]6(C)[C@H]5C(=O)C[C@@]43C)c3ccc(N(C)C)cc3nc2c1, the T/C [7] was 53 % of control, the T/C [8] was 92 % of control and the T/C [9] was 39 % of control. For the same molecule, the T/C [10] was 55 % of control.

For Nc1nc(N)c(N=O)c(Nc2ccc(Br)cc2)n1, the T/C [1] was 42 % of control, the T/C [2] was 42 % of control and the T/C [5] was 38 % of control. The T/C [6] was 40 % of control.

For CC1=CC2c3cccc4[nH]cc(c34)CC2N(C)C1 (stereo not drawn), the T/C (dose: 12.5 mg/kg/injection, schedule: Q04DX003 (sc), vehicle: suspension in saline) was 153 % of control.

For CN(C)P(=O)(Oc1ccccc1)N(C)C, the T/C (dose: 150.0 mg/kg/injection, schedule: Q04DX003 (sc), vehicle: saline with Tween-80) was 97 % of control, the T/C [1] was 107 % of control and the T/C [2] was 113 % of control. The T/C [5] was 71 % of control.

O=C1CC2(C(=O)N1CN1CCCCC1)c1ccccc1-c1ccccc12 was tested, and the T/C (dose: 200.0 mg/kg/injection, schedule: Q04DX003 (sc), vehicle: Klucel (hydroxypropylcellulose) (HPC)) was 79 % of control, the T/C [3] was 71 % of control and the T/C [4] was 72 % of control.

In the case of COc1c(C=O)c2c(c(OC)c1OC)-c1ccc(OC)c(=O)cc1[C@@H](NC(C)=O)CC2, the T/C (dose: 18.75 mg/kg/injection, schedule: Q04DX003 (sc), vehicle: Klucel (hydroxypropylcellulose) (HPC)) is reported as 20 % of control and the T/C (dose: 37.5 mg/kg/injection, schedule: Q04DX003 (sc), vehicle: Klucel (hydroxypropylcellulose) (HPC)) is reported as 11 % of control.

In the case of Nc1ccc2nc3ccc(N)cc3[n+](-c3ccccc3)c2c1, the T/C (dose: 18.0 mg/kg/injection, schedule: Q04DX003 (sc), vehicle: saline) is reported as 65 % of control, the T/C (dose: 36.0 mg/kg/injection, schedule: Q04DX003 (sc), vehicle: saline) is reported as 119 % of control and the T/C (dose: 72.0 mg/kg/injection, schedule: Q04DX003 (sc), vehicle: saline) is reported as 72 % of control. For the same molecule, the T/C (dose: 144.0 mg/kg/injection, schedule: Q04DX003 (sc), vehicle: saline) was 59 % of control.

In the case of COc1cc(C(=O)c2cocc2C(=O)c2ccc3c(c2)OCO3)cc(OC)c1OC, the T/C [8] is reported as 74 % of control, the T/C [9] is reported as 52 % of control and the T/C [10] is reported as 56 % of control. For the same molecule, the T/C [11] was 44 % of control.

With O=CNCO the T/C (dose: 300.0 mg/kg/injection, schedule: Q01DX010 (sc), vehicle: water) was 111 % of control, the T/C (dose: 600.0 mg/kg/injection, schedule: Q01DX010 (sc), vehicle: water) was 62 % of control and the T/C (dose: 1200.0 mg/kg/injection, schedule: Q01DX010 (sc), vehicle: water) was 37 % of control. The T/C (dose: 2000.0 mg/kg/injection, schedule: Q01DX010 (sc), vehicle: water) was 5 % of control.

For C[C@]12CCC(=O)C=C1CC[C@@H]1[C@@H]2[C@@H](O)C[C@@]2(C)[C@H]1CC[C@]2(O)C(=O)CO, the T/C [7] was 117 % of control, the T/C [8] was 45 % of control and the T/C [9] was 33 % of control. For the same molecule, the T/C [10] was 33 % of control.

N#CCCN(C(=S)Nc1cccc(C(F)(F)F)c1)C1CCCCC1 was tested, and the T/C [9] was 89 % of control and the T/C (dose: 2400.0 mg/kg/injection, schedule: Q04DX003 (sc), vehicle: Klucel (hydroxypropylcellulose) (HPC)) was 106 % of control.

For O=C(NC1CCCCC1)OCc1c(COC(=O)NC2CCCCC2)c(-c2ccc(Cl)c(Cl)c2)n2c1CCC2, the T/C [1] was 114 % of control, the T/C [2] was 114 % of control and the T/C [5] was 107 % of control. For the same molecule, the T/C [6] was 109 % of control.

CCN1C=C/C(=C\C=C/c2cc[n+](CC)c3ccccc23)c2ccccc21 was tested, and the T/C (dose: 0.25 mg/kg/injection, schedule: Q01DX010 (sc), vehicle: saline) was 111 % of control, the T/C (dose: 0.5 mg/kg/injection, schedule: Q01DX010 (sc), vehicle: saline) was 173 % of control and the T/C (dose: 1.0 mg/kg/injection, schedule: Q01DX010 (sc), vehicle: saline) was 82 % of control.

For Cc1cc(NCCCN(C)C)c2ccc3c(ccc4c(NCCCN(C)C)cc(C)nc43)c2n1, the T/C (dose: 9.38 mg/kg/injection, schedule: Q04DX003 (sc), vehicle: saline with Tween-80) was 77 % of control and the T/C (dose: 18.75 mg/kg/injection, schedule: Q04DX003 (sc), vehicle: saline with Tween-80) was 65 % of control.

For CC(=O)OC1=NC(C)c2c1cc(OC(C)=O)[nH]c2=O (stereo not drawn), the T/C [9] was 102 % of control, the T/C [10] was 91 % of control and the T/C [11] was 70 % of control.

With N=C(N)Sc1cc(O)ccc1O the T/C (dose: 37.5 mg/kg/injection, schedule: Q04DX003 (sc), vehicle: saline) was 96 % of control, the T/C (dose: 75.0 mg/kg/injection, schedule: Q04DX003 (sc), vehicle: saline) was 106 % of control and the T/C (dose: 150.0 mg/kg/injection, schedule: Q04DX003 (sc), vehicle: saline) was 79 % of control. For the same molecule, the T/C (dose: 300.0 mg/kg/injection, schedule: Q04DX003 (sc), vehicle: saline) was 90 % of control.

For CCOC(=O)NC1=C(N2CC2)C(=O)C(NC(=O)OCC)=C(N2CC2)C1=O, the T/C (dose: 1.56 mg/kg/injection, schedule: Q01DX010 (sc), vehicle: saline) was 1 % of control, the T/C (dose: 3.13 mg/kg/injection, schedule: Q01DX010 (sc), vehicle: saline) was 3 % of control and the T/C (dose: 3.13 mg/kg/injection, schedule: Q04DX003 (ip), vehicle: suspension in saline) was 41 % of control. The T/C (dose: 6.25 mg/kg/injection, schedule: Q04DX003 (ip), vehicle: suspension in saline) was -44 % of control and the T/C (dose: 12.5 mg/kg/injection, schedule: Q04DX003 (ip), vehicle: suspension in saline) was -100 % of control.
